The record followed here is patent US8202885B2, “Bridged six-membered ring compounds” (Actelion Pharmaceuticals Ltd., priority 2007, dated 2012).

Each structure is given as a SMILES string. “And” between values parts separate entries of the source, which are not always exact repeats. Equal values may be shown once.

The test system of this experiment is human Cav3.1 Cav3.2 or Cav3.3 channel. Briefly: In vitro assay T channel (FLIPR calcium fluorescence). The format is cell-based. As to conditions: HEK293 cells expressing human Cav3.1, Cav3.2 or Cav3.3; 10 mM Ca2+-induced fluo-4 fluorescence; determined up to 10 μM; read-out: T channel antagonistic activity IC50. An outline of the steps: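 HEK293 cells stably expressing human Cav3.1, Cav3.2 or Cav3.3 loaded with fluo-4 AM (3 μM), preincubated 3 min with antagonist, then stimulated with 10 mM Ca2+ in TEA-chloride/HEPES buffer pH 7.2. FLIPR fluorescence read every 2 s for 8 min; IC50 from peak area versus vehicle, tested up to 10 μM.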
Take `CC(C)C(=O)OC1(CCN(C)CCCc2nc3ccccc3[nH]2)CC2CCC1CC2c1ccccc1` (racemic) [Example 73A, rac-Isobutyric acid (1R*,2R*,4R*,5S*)-2-(2-{[3-(1H-benzoimidazol-2-yl)-propyl]-methyl-amino}-ethyl)-5-phenyl-bicyclo[2.2.2]oct-2-yl ester and rac-isobutyric acid (1R*,2R*,4R*,5R*)-2-(2-{[3-(1H-benzoimidazol-2-yl)-propyl]-methyl-amino}-ethyl)-5-phenyl-bicyclo[2.2.2]oct-2-yl ester]: the IC50 – broadly, the concentration at which inhibition is half-maximal – was 1.75 µM and 2 µM.

In the case of `COc1cccc2[nH]c(CCCN(C)CC[C@]3(OC(=O)C(C)C)C[C@H]4CCC[C@@H]3C=C4c3ccccc3)nc12` (relative stereo) [Example 36A, rac-Isobutyric acid (1R*,5R*,6R*)-6-(2-{[3-(4-methoxy-1H-benzoimidazol-2-yl)-propyl]-methyl-amino}-ethyl)-8-phenyl-bicyclo[3.2.2]non-8-en-6-yl ester], the IC50 was 1.01 µM.

`CC1=C(c2ccccc2)[C@H]2CC[C@@H]1C[C@@]2(CCN(C)CCCc1nc2ccccc2[nH]1)OC(=O)C(C)C` (relative stereo) [Example 17C, rac-Isobutyric acid (1R*,2S*,4R*)-2-(2-{[3-(1H-benzoimidazol-2-yl)-propyl]-methyl-amino}-ethyl)-5-methyl-6-phenyl-bicyclo[2.2.2]oct-5-en-2-yl ester]: the concentration for half-maximal inhibition (IC50) was found to be 0.55 µM.

As to `COc1ccc2[nH]c(CCCN(C)CC[C@]3(O)C[C@H]4CC[C@@H]3C=C4c3ccccc3)nc2c1` (relative stereo) [Example 29, rac-(1R*,2R*,4R*)-2-(2-{[3-(5-Methoxy-1H-benzoimidazol-2-yl)-propyl]-methyl-amino}-ethyl)-5-phenyl-bicyclo[2.2.2]oct-5-en-2-ol], the IC50 is greater than 10 µM.

As to `COc1ccc2[nH]c(CCCN(C)CC[C@]3(OC(=O)C(C)C)C[C@H]4CC[C@@H]3C=C4c3ccccc3)nc2c1` (relative stereo) [Example 29A, rac-Isobutyric acid (1R*,2R*,4R*)-2-(2-{[3-(5-methoxy-1H-benzoimidazol-2-yl)-propyl]-methyl-amino}-ethyl)-5-phenyl-bicyclo[2.2.2]oct-5-en-2-yl ester], the half-inhibitory concentration (IC50) was 4.51 µM.

For the compound `CC(C)C(=O)O[C@@]1(CCN(C)CCCc2nc3c(C(F)(F)F)cc(C(F)(F)F)cc3[nH]2)C[C@H]2CC[C@@H]1C=C2c1ccccc1` (relative stereo) [Example 62A, rac-Isobutyric acid (1R*,2R*,4R*)-2-(2-{[3-(4,6-bis-trifluoromethyl-1H-benzoimidazol-2-yl)-propyl]-methyl-amino}-ethyl)-5-phenyl-bicyclo[2.2.2]oct-5-en-2-yl ester], the IC50 was 0.469 µM.

Regarding `CN(CCCc1nc2cccc(O)c2[nH]1)CC[C@]1(O)C[C@H]2CC[C@@H]1C=C2c1ccccc1` (relative stereo) [Example 34, rac-(1R*,2R*,4R*)-2-(3-{[2-(2-Hydroxy-5-phenyl-bicyclo[2.2.2]oct-5-en-2-yl)-ethyl]-methyl-amino}-propyl)-3H-benzoimidazol-4-ol], the IC50 came out at 2.56 µM.

Take `CO[C@]1(c2ccccc2)C[C@H]2CC[C@@H]1C[C@]2(CCN(C)CCCc1nc2ccccc2[nH]1)OC(=O)C(C)C` (relative stereo) [Example 76A, rac-Isobutyric acid (1R*,2R*,4R*,5R*)-2-(2-{[3-(1H-benzoimidazol-2-yl)-propyl]-methyl-amino}-ethyl)-5-methoxy-5-phenyl-bicyclo[2.2.2]oct-2-yl ester]: the IC50 amounted to 2.12 µM.

As for `COc1ccc(C2=C[C@H]3CC[C@@H]2C[C@]3(CCN(C)CCCc2nc3ccccc3[nH]2)OC(=O)C(C)C)cc1` (relative stereo) [Example 22A, rac-Isobutyric acid (1R*,2R*,4R*)-2-(2-{[3-(1H-benzoimidazol-2-yl)-propyl]-methyl-amino}-ethyl)-5-(4-methoxy-phenyl)-bicyclo[2.2.2]oct-5-en-2-yl ester], the IC50 turned out to be 6.93 µM.

As for `Cc1ccc(C2=C[C@H]3CC[C@@H]2C[C@@]3(O)CCN(C)CCCc2nc3ccccc3[nH]2)cc1` (relative stereo) [Example 6, rac-(1R*,2R*,4R*)-2-(2-{[3-(1H-Benzoimidazol-2-yl)-propyl]-methyl-amino}-ethyl)-5-(4-methyl-phenyl)-bicyclo[2.2.2]oct-5-en-2-ol], the IC50 was 4.85 µM.

As for `COc1cccc2[nH]c(CCCN(C)CC[C@]3(OC(=O)C(C)(C)C)C[C@H]4CC[C@@H]3C=C4c3ccccc3)nc12` (relative stereo) [Example 26D, rac-2,2-Dimethyl propionic acid (1R*,2R*,4R*)-2-(2-{[3-(4-methoxy-1H-benzoimidazol-2-yl)-propyl]-methyl-amino}-ethyl)-5-phenyl-bicyclo[2.2.2]oct-5-en-2-yl ester], the concentration for half-maximal inhibition (IC50) is 1.05 µM.

Regarding `COc1ccc(OC)c2[nH]c(CCCN(C)CCC3(OC(=O)C(C)C)CC4CCC3C=C4c3ccccc3)nc12` [Example 67A, Isobutyric acid (1R,2R,4R)-2-(2-{[3-(4,7-dimethoxy-1H-benzoimidazol-2-yl)-propyl]-methyl-amino}-ethyl)-5-phenyl-bicyclo[2.2.2]oct-5-en-2-yl ester or Isobutyric acid (1S,2S,4S)-2-(2-{[3-(4,7-dimethoxy-1H-benzoimidazol-2-yl)-propyl]-methyl-amino}-ethyl)-5-phenyl-bicyclo[2.2.2]oct-5-en-2-yl ester], the IC50 stood at 0.778 µM.

Consider `CC(C)Oc1cccc2nc(CCCN(C)CC[C@]3(O)C[C@H]4CC[C@@H]3C=C4c3ccccc3)[nH]c12` (relative stereo) [Example 33, rac-(1R*,2R*,4R*)-2-(2-{[3-(7-Isopropoxy-1H-benzoimidazol-2-yl)-propyl]-methyl-amino}-ethyl)-5-phenyl-bicyclo[2.2.2]oct-5-en-2-ol], for which the IC50 came out at 2.99 µM.

As to `COc1ccc(OC)c2[nH]c(CCCN(C)CCC3(OC(=O)C(C)C)CC4CCC3C=C4c3ccccc3)nc12` [Example 70A, Isobutyric acid (1R,2R,4R)-2-(2-{[3-(4,7-dimethoxy-1H-benzoimidazol-2-yl)-propyl]-methyl-amino}-ethyl)-5-phenyl-bicyclo[2.2.2]oct-5-en-2-yl ester or isobutyric acid (1S,2S,4S)-2-(2-{[3-(4,7-dimethoxy-1H-benzoimidazol-2-yl)-propyl]-methyl-amino}-ethyl)-5-phenyl-bicyclo[2.2.2]oct-5-en-2-yl ester], the IC50 turned out to be 0.793 µM.

`CN(CCCc1nc2cc(Cl)c(Cl)cc2[nH]1)CC[C@]1(O)C[C@H]2CC[C@@H]1C=C2c1ccccc1` (relative stereo) [Example 27, rac-(1R*,2R*,4R*)-2-(2-{[3-(5,6-Dichloro-1H-benzoimidazol-2-yl)-propyl]-methyl-amino}-ethyl)-5-phenyl-bicyclo[2.2.2]oct-5-en-2-ol]: the IC50 is greater than 10 µM.

Regarding `CN(CCCc1cnc2ccccc2c1)CC[C@]1(O)C[C@H]2CC[C@@H]1C=C2c1ccccc1` (relative stereo) [Example 49, rac-(1R*,2R*,4R*)-2-{2-[Methyl-(3-quinolin-3-yl-propyl)-amino]-ethyl}-5-phenyl-bicyclo[2.2.2]oct-5-en-2-ol], the IC50 is greater than 10 µM.

Take `COc1ccc(C2=CC3CCC2CC3(O)CCN(C)CCCc2nc3ccccc3[nH]2)cc1` (racemic) [Example 22, rac-(1R*,2R*,4R*)-2-(2-{[3-(1H-Benzoimidazol-2-yl)-propyl]-methyl-amino}-ethyl)-5-(4-methoxy-phenyl)-2-yl-bicyclo[2.2.2]oct-5-en-2-ol]: the IC50 was greater than 10 µM.

Turning to `CC(C)C(=O)O[C@@]1(CCN(C)CCCc2ccccc2)C[C@H]2CC[C@@H]1C=C2c1ccccc1` (relative stereo) [Example 15A, rac-Isobutyric acid (1R*,2R*,4R*)-2-{2-[methyl-(3-phenyl-propyl)-amino]-ethyl}-5-phenyl-bicyclo[2.2.2]oct-5-en-2-yl ester], the IC50 came out at 8.63 µM.

`CO[C@]1(c2ccccc2)C[C@H]2CC[C@@H]1C[C@@]2(O)CCN(C)CCCc1nc2ccccc2[nH]1` (relative stereo) [Example 76, rac-(1R*,2R*,4R*,5R*)-2-(2-{[3-(1H-Benzoimidazol-2-yl)-propyl]-methyl-amino}-ethyl)-5-methoxy-5-phenyl-bicyclo[2.2.2]octan-2-ol]: the IC50 is greater than 10 µM.

Turning to `CC(C)C(=O)O[C@@]1(CCN(C)CCCc2nc3ccccc3[nH]2)C[C@H]2CC[C@@H]1C[C@@]21OCc2ccccc21` (relative stereo) [Example 79A, rac-Isobutyric acid (1R*,2R*,4R*,5R*)-5-(2-{[3-(1H-benzoimidazol-2-yl)-propyl]-methyl-amino}-ethyl)-3′H-spiro(bicyclo[2.2.2]octane-2,1′-isobenzofuran)-5-yl ester], the IC50 amounted to 9.47 µM.

Consider `COC(C)(C)C(=O)NCCCN(C)CC[C@]1(OC(=O)C(C)C)C[C@H]2CC[C@@H]1C=C2c1ccccc1` (relative stereo) [Example 44A, rac-Isobutyric acid (1R*,2R*,4R*)-2-(2-{[3-(2-methoxy-2-methyl-propionylamino)-propyl]-methyl-amino}-ethyl)-5-phenyl-bicyclo[2.2.2]oct-5-en-2-yl ester], for which the IC50 was greater than 10 µM.

For the compound `CC(C)C(=O)O[C@@]1(CCN(C)CCCc2nc3c(Cl)cccc3[nH]2)C[C@H]2CC[C@@H]1C=C2c1ccccc1` (relative stereo) [Example 57A, rac-Isobutyric acid (1R*,2R*,4R*)-2-(2-{[3-(4-chloro-1H-benzoimidazol-2-yl)-propyl]-methyl-amino}-ethyl)-5-phenyl-bicyclo[2.2.2]oct-5-en-2-yl ester], the IC50 amounted to 1.99 µM.
